Converted amounts (≈) assume the structure as drawn. “And” between values parts separate entries of the source, which are not always exact repeats. Equal entries are not always repeated.

What all share (assay): ≥ marks a high value that may be exact or a test limit, other limits are often not marked, values filed in µg/mL are converted to µM
In assay [1] the test system is Escherichia coli ATCC 25922.
The test system of assay [2] is Klebsiella pneumoniae ST258.
Assay [3] has as its system Mycobacterium tuberculosis CAS3.
The subject of assay [4] is Mycobacterium tuberculosis FYX.
In assay [5] the test system is Mycobacterium tuberculosis H37Rv.
For assay [6], the system named is Mycobacterium tuberculosis WXY.
Assay [7] concerns Mycobacterium tuberculosis.
For assay [8], the system named is Pseudomonas aeruginosa ATCC 27853.
Assay [9] concerns Aeromonas caviae IP67-16T.
Assay [10] deals with Aspergillus fumigatus IP1025-70.
For assay [11], the system named is Aspergillus niger IP218-53.
In assay [12] the test system is Candida albicans IP884-65.
The subject of assay [13] is Candida albicans IP886-65.
The subject of assay [14] is Cryptococcus neoformans IP960-67.
The test system of assay [15] is Cryptococcus neoformans IP962-67.
Assay [16] relates to Enterococcus faecalis IP103214.
Assay [17] concerns Escherichia coli IP76-24.
The test system of assay [18] is Microsporum canis IP1194.
The test system of assay [19] is Nocardia brasiliensis IP16-80.
Assay [20] deals with Saccharomyces cerevisiae IP118079.
Assay [21] relates to Staphylococcus aureus IP76-25.
Assay [22] relates to Trichophyton mentagrophytes IP877-71.
Assay [23] concerns Trichophyton rubrum IP2043-92.
Assay [24] has as its system Trichophyton simii IP1063-74.
The subject of assay [25] is Trichophyton simii J43 IP903-65.
In assay [26] the test system is Acinetobacter baumannii ATCC 19606.
Assay [27] concerns Aggregatibacter actinomycetemcomitans ATCC 29522.
In assay [28] the test system is Candida krusei ATCC 20029.
Assay [29] relates to Candida krusei.
The subject of assay [30] is Cryptococcus gattii ATCC 32608.
Assay [31] concerns Cryptococcus neoformans ATCC 24067.
Assay [32] concerns Cryptococcus neoformans.
Assay [33] deals with Escherichia coli ATCC 10536.
In assay [34] the test system is Staphylococcus aureus ATCC 6538.
The subject of assay [35] is Staphylococcus epidermidis ATCC 12228.
The test system of assay [36] is Streptococcus sanguinis ATCC 10556.
The subject of assay [37] is Cupriavidus necator H16.
Assay [38] concerns Escherichia coli BL21(DE3).
Assay [39] concerns Escherichia coli JM109.
In assay [40] the test system is Pseudomonas putida GPp104.
The subject of assay [41] is Aspergillus fumigatus.
For assay [42], the system named is Escherichia coli D22.
Assay [43] deals with Micrococcus luteus A270.
Assay [44] has as its system Neurospora crassa CBS 327-54.

Consider `CC(C)C[C@H](NC(=O)[C@H](CCCCN)NC(=O)[C@H](CCCCN)NC(=O)[C@H](CO)NC(=O)[C@H](Cc1ccccc1)NC(=O)[C@H](CCCCN)NC(=O)[C@H](CCCCN)NC(=O)[C@H](CC(C)C)NC(=O)CNC(=O)[C@H](CCCCN)NC(=O)[C@H](CC(C)C)NC(=O)CNC(=O)[C@H](Cc1c[nH]c2ccccc12)NC(=O)[C@@H](N)Cc1ccccc1)C(=O)O` [FWGLKGLKKFSKKL], for which the MIC in [1] is 25 µM (≈ 42 µg/mL); in assay [2], 29.8 µM (≈ 50 µg/mL); in [3], 11.2 µM (≈ 18.8 µg/mL); in [4] it was 11.2 µM (≈ 18.8 µg/mL); in assay [5] it was 11.9 µM and 11.2 µM; in assay [6], 22.3 µM (≈ 37.5 µg/mL). Further, the MIC in assay [7] was 5.95 µM (≈ 10 µg/mL); in assay [8], above 29.8 µM.

In the case of `CC[C@H](C)[C@H](NC(=O)[C@H](CCCCN)NC(=O)[C@H](CO)NC(=O)[C@H](Cc1c[nH]c2ccccc12)NC(=O)[C@H](CC(C)C)NC(=O)CN)C(=O)N[C@@H](CCCCN)C(=O)N[C@H](C(=O)N[C@@H](C)C(=O)NCC(=O)N[C@@H](CCCCN)C(=O)N[C@@H](CO)C(=O)N[C@H](C(=O)N[C@@H](C)C(=O)N[C@@H](CCCCN)C(=O)N[C@@H](C)C(=O)N[C@@H](C)C(=O)N[C@@H](C)C(=O)N[C@@H](CCCCN)C(=O)N[C@@H](C)C(=O)N[C@@H](C)C(=O)N[C@H](C(=O)N[C@@H](CCCCN)C(=O)N[C@@H](C)C(=O)N[C@H](C(=O)N[C@H](C(=O)N[C@@H](CC(N)=O)C(=O)N[C@@H](C)C(=O)N[C@H](C(=O)O)C(C)C)[C@@H](C)O)C(C)C)C(C)C)C(C)C)[C@@H](C)O` [GLWSKIKTAGKSVAKAAAKAAVKAVTNAV], the MIC is at least 35 µM in assay [9]; at least 70 µM in [10]; 30 µM (≈ 85.2 µg/mL) in assay [11]; 10 µM (≈ 28.4 µg/mL) in assay [12]; 10 µM (≈ 28.4 µg/mL) in assay [13]; 1 µM (≈ 2.84 µg/mL) in assay [14]. The MIC is 1 µM (≈ 2.84 µg/mL) in [15]; at least 40 µM in [16]; at least 35 µM in assay [17]; 15 µM (≈ 42.6 µg/mL) in assay [18]; at least 40 µM in assay [19]; 5 µM (≈ 14.2 µg/mL) in assay [20]. Also, the MIC in assay [21] was determined as 2 µM (≈ 5.68 µg/mL); in assay [22] it was 20 µM (≈ 56.8 µg/mL); in [23], 20 µM (≈ 56.8 µg/mL); in [24], 30 µM (≈ 85.2 µg/mL); in assay [25], 20 µM (≈ 56.8 µg/mL).

On to `CC[C@H](C)[C@H](N)C(=O)N[C@@H](Cc1c[nH]c2ccccc12)C(=O)N[C@@H](CC(C)C)C(=O)N[C@H](C(=O)N[C@@H](C)C(=O)N[C@@H](CC(C)C)C(=O)N[C@@H](CCCCN)C(=O)N[C@@H](Cc1ccccc1)C(=O)N[C@@H](CC(C)C)C(=O)NCC(=O)N[C@@H](CCCCN)C(=O)N[C@@H](CC(N)=O)C(=O)N[C@@H](CC(C)C)C(=O)NCC(=O)N[C@@H](CCCCN)C(=O)N[C@@H](Cc1cnc[nH]1)C(=O)N[C@@H](CC(C)C)C(=O)N[C@@H](C)C(=O)N[C@@H](CCCCN)C(=O)N[C@@H](CCC(N)=O)C(=O)N[C@@H](CCC(N)=O)C(=O)N[C@@H](CC(C)C)C(=O)N[C@@H](C)C(=O)N[C@@H](CCCCN)C(=O)N[C@@H](CC(C)C)C(N)=O)[C@@H](C)O` [IWLTALKFLGKNLGKHLAKQQLAKL], for which the MIC was 0.7 µM (≈ 1.98 µg/mL) in assay [26]; 10.6 µM (≈ 30 µg/mL) in [27]; 14.2 µM (≈ 40.3 µg/mL) in assay [28]; 26.3 µM (≈ 74.5 µg/mL) in assay [29]; 2.23 µM (≈ 6.32 µg/mL) in [30]; 7.11 µM (≈ 20.1 µg/mL) in assay [31]. For the same compound, the MIC in [32] amounted to 13.2 µM (≈ 37.4 µg/mL); in assay [33] it was 5.52 µM (≈ 15.6 µg/mL); in [8], 2.82 µM (≈ 7.99 µg/mL); in assay [34], 5.52 µM (≈ 15.6 µg/mL); in assay [35], 0.7 µM (≈ 1.98 µg/mL); in [36], 10.9 µM (≈ 30.9 µg/mL).

`CC[C@H](C)[C@H](NC(=O)[C@H](Cc1ccc(O)cc1)NC(=O)[C@@H](NC(=O)[C@@H]1CCCN1C(=O)[C@H](CCCN=C(N)N)NC(=O)[C@@H](NC(=O)[C@@H]1CCCN1C(=O)[C@@H](N)CCCN=C(N)N)C(C)C)C(C)C)C(=O)N1CCC[C@H]1C(=O)N[C@@H](CCC(N)=O)C(=O)N1CCC[C@H]1C(=O)N[C@@H](CCCN=C(N)N)C(=O)N1CCC[C@H]1C(=O)N1CCC[C@H]1C(=O)N[C@@H](Cc1cnc[nH]1)C(=O)N1CCC[C@H]1C(=O)N[C@@H](CCCN=C(N)N)C(=O)N[C@@H](CC(C)C)C(=O)O` [RPVRPVYIPQPRPPHPRL]: the MIC in [37] worked out at 10 µM (≈ 21.8 µg/mL); in assay [38], 0.313 µM (≈ 0.681 µg/mL); in [39] it was 6.25 µM (≈ 13.6 µg/mL); in [40] it was 6.25 µM (≈ 13.6 µg/mL).

`CSCC[C@H](NC(=O)[C@H](CO)NC(=O)[C@@H](N)CO)C(=O)N[C@@H](CCCCN)C(=O)N[C@@H](CC(C)C)C(=O)N[C@@H](CO)C(=O)N[C@@H](Cc1ccccc1)C(=O)N[C@@H](CCCN=C(N)N)C(=O)N[C@@H](C)C(=O)N[C@@H](CCCN=C(N)N)C(=O)N[C@@H](C)C(=O)N[C@@H](Cc1ccc(O)cc1)C(=O)NCC(=O)N[C@@H](Cc1ccccc1)C(=O)N[C@@H](CCCN=C(N)N)C(=O)NCC(=O)N1CCC[C@H]1C(=O)NCC(=O)N[C@@H](CC(C)C)C(=O)N[C@@H](CCC(N)=O)C(=O)N[C@@H](CC(C)C)C(=O)O` [SSMKLSFRARAYGFRGPGLQL]: the MIC in assay [41] was at least 100 µM; in assay [42] it was at least 100 µM; in assay [43], 10 µM (≈ 23.4 µg/mL); in [44], 10 µM (≈ 23.4 µg/mL).

These data come from DBAASP.
